Results reported in EPA's ToxValDB 9.5 (doi:10.2903/j.efsa.2017.4980).
Values after ≈ are worked out from the molar mass of the structure shown.

What was measured:
Anas platyrhynchos = settings: reproductive
Apis mellifera = settings: acute, mortality
Canidae = settings: oral, Dog Other, organ weight
Landoltia sp. = settings: chronic/long-term; duration: 14 days
Tagia sp. = settings: acute; duration: 14 days; mortality
Typhlodromus pyri = assay: LR50; higher = less toxic; settings: not reported; mortality

SMILES: CCC(C)(NC(=O)c1cc(Cl)c(C)c(Cl)c1)C(=O)CCl (configuration not stated) [Zoxamide]
- NOEC (Anas platyrhynchos): 123 mg/kg-day
- LD50 (Apis mellifera; dermal): > 100 µg/piece
- LD50 (Apis mellifera; oral, unspecified): > 33 µg/piece
- NOAEL (Canidae; chronic, duration: 1 years): 50 mg/kg-day
- NOAEL (Canidae; subchronic, duration: 90 days): 50 mg/kg-day
- LD50 (Colinus virginianus; acute, oral, mortality): > 2000 mg/kg-day
- NOEC (Colinus virginianus; reproduction developmental): 171 mg/kg-day
- NOEC (Landoltia sp.): 0.009 mg/L
- LC50 (Neomysis kadiakensis; acute, duration: 96 hours, mortality): 0.076 µg/mL (≈ 0.226 µM)
- NOEC (Neomysis kadiakensis; chronic/long-term, duration: 27 days): 0.0072 mg/L
- LC50 (Oncorhynchus mykiss; acute, duration: 96 hours, oral, feed, mortality): 0.16 µg/mL (≈ 0.475 µM)
- NOEC (Oncorhynchus mykiss; chronic/long-term, duration: 95 days): 0.00348 mg/L
- LD50 (Rattus norvegicus; acute, oral, mortality): > 5000 mg/kg-day
- NOAEL (Rattus norvegicus; reproduction developmental, body weight): 360 mg/kg-day
- LC50 (Tagia sp.): > 1070 mg/kg
- NOEC (Tagia sp.): 66.7 mg/kg
- LR50 (Typhlodromus pyri): > 300 g/ha
